Experimental data from patent US9040545B2, “Heterocyclyl pyrazolopyrimidine analogues as selective JAK inhibitors” (Cellzome Limited, priority 2010, dated 2015).

Molecular target: T1, Aurora A (Homo sapiens, UniProt O14965)
T1 construct: cell lysates from Jurkat cells (ATCC TIB-152) used; endogenous in cells; host or cells: Jurkat cells (ATCC TIB-152), treated with pervanadate
T1 sequence (O14965 1-403): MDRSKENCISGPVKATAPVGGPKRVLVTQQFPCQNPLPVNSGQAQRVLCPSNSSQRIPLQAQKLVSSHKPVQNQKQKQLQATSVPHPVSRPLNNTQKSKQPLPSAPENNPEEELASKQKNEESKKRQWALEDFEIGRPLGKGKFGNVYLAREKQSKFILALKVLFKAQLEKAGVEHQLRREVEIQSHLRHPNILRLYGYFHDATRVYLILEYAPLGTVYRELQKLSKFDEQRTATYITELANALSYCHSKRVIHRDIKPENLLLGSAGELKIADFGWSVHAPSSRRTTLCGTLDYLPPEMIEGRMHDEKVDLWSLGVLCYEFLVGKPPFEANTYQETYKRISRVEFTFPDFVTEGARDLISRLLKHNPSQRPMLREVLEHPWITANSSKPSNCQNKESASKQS
Test: Kinobeads assay, Aurora A
Type: binding
Details: for IC50: lysate of pervanadate-treated Jurkat cells, read-out: Inhibition values (IC50) Aur A
Experimental: The compounds of the present invention as described in the previous examples were tested in a Kinobeads™ assay as described for ZAP-70 (WO-A 2007/137867). Briefly, test compounds (at various concentrations) and the affinity matrix with the immobilized aminopyrido-pyrimidine ligand 24 were added to cell lysate aliquots and allowed to bind to the proteins in the lysate sample. After the incubation time the beads with captured proteins were separated from the lysate. Bound proteins were then eluted and the presence of JAK2 and JAK3 was detected and quantified using specific antibodies in a dot blot procedure and the Odyssey infrared detection system. Dose response curves for individual kinases were generated and IC50 values calculated. Kinobeads™ assays for ZAP-70 (WO-A 2007/137867) and for kinase selectivity profiling (WO-A 2006/134056) have been previously described.
The affinity matrix was washed two times with 15 mL of 1×DP buffer containing 0.2% NP40 (IGEPAL® CA-630, Sigma, #I3021) and then resuspended in 1×DP buffer containing 0.2% NP40 (3% beads slurry).
5×DP buffer 250 mM Tris-HCl pH 7.4, 25% Glycerol, 7.5 mM MgCl2, 750 mM NaCl, 5 mM Na3VO4; filter the 5×DP buffer through a 0.22 μm filter and store in aliquots at −80° C. The 5×DP buffer is diluted with H2O to 1×DP buffer containing 1 mM DTT and 25 mM NaF.
Stock solutions of test compounds were prepared in DMSO. In a 96 well plate 30 μL solution of diluted test compounds at 5 mM in DMSO were prepared. Starting with this solution a 1:3 dilution series (9 steps) was prepared. For control experiments (no test compound) a buffer containing 2% DMSO was used.
Cell lysate (approximately 50 mg protein per plate) was thawed in a water bath at room temperature and then stored on ice. To the thawed cell lysate 1×DP 0.8% NP40 buffer containing protease inhibitors (1 tablet for 25 mL buffer; EDTA-free protease inhibitor cocktail; Roche Diagnostics 1873580) was added in order to reach a final protein concentration of 10 mg/mL total protein. The diluted cell lysate was stored on ice. Mixed Molt4/Ramos lysate was prepared by combining one volume of Molt4 lysate and two volumes of Ramos lysate (ratio 1:2).
To a 96 well filter plate (Multiscreen HTS, BV Filter Plates, Millipore #MSBVN1250) were added per well: 100 μL affinity matrix (3% beads slurry), 3 μL of compound solution, and 50 μL of diluted lysate. Plates were sealed and incubated for 3 hours in a cold room on a plate shaker (Heidolph tiramax 1000) at 750 rpm. Afterwards the plate was washed 3 times with 230 μL washing buffer (1×DP 0.4% NP40). The filter plate was placed on top of a collection 1 plate (Greiner bio-one, PP-microplate 96 well V-shape, 65120) and the beads were then eluted with 20 μL of sample buffer (100 mM Tris, pH 7.4, 4% SDS, 0.00025% bromophenol blue, 20% glycerol, 50 mM DTT). The eluate was frozen quickly at −80° C. and stored at −20° C.
The kinases in the eluates were detected and quantified by spotting on nitrocellulose membranes and using a first antibody directed against the kinase of interest and a fluorescently labelled secondary antibody (anti-rabbit IRDye™ antibody 800 (Licor, #926-32211). The Odyssey Infrared Imaging system from LI-COR Biosciences (Lincoln, Nebr., USA) was operated according to instructions provided by the manufacturer (Schutz-Geschwendener et al, 2004. Quantitative, two-color Western blot detection with infrared fluorescence. Published May 2004 by LI-COR Biosciences, www.licor.com).
After spotting of the eluates the nitrocellulose membrane (BioTrace NT; PALL, #BTNT30R) was first blocked by incubation with Odyssey blocking buffer (LICOR, 927-40000) for 1 hour at room temperature. Blocked membranes were then incubated for 16 hours at the temperature shown in Table 5 with the first antibody diluted in Odyssey blocking buffer (LICOR #927-40000). Afterwards the membrane was washed twice for 10 minutes with PBS buffer containing 0.2% Tween 20 at room temperature. […]

Compound	JAK3/AurA Fold Selectivity	IC50 [nM]
Cn1cc(Nc2ncc3cnn(Cc4cccc(N5CCNCC5)c4)c3n2)cn1 [Example 22, N-(1-Methyl-1H-pyrazol-4-yl)-1-(3-(piperazin-1-yl)benzyl)-1H-pyrazolo[3,4-d]pyrimidin-6-amine]	10-50 Fold	100 to 1000
FC(F)Cn1cc(Nc2ncc3cnn(Cc4cccc(N5CCOCC5)c4)c3n2)cn1 [Example 23, N-(1-(2,2-Difluoroethyl)-1H-pyrazol-4-yl)-1-(3-morpholinobenzyl)-1H-pyrazolo[3,4-d]pyrimidin-6-amine]	3-10 Fold	100 to 1000
CNC(=O)CCn1cc(Nc2ncc3cnn(Cc4cccc(N5CCOCC5)c4)c3n2)cn1 [Example 24, N-Methyl-3-(4-((1-(3-morpholinobenzyl)-1H-pyrazolo[3,4-d]pyrimidin-6-yl)amino)-1H-pyrazol-1-yl)propanamide]	10-50 Fold	100 to 1000
Cn1cc(Nc2ncc3cnn(Cc4cccc(N5CCS(=O)(=O)CC5)c4)c3n2)cn1 [Example 25, 4-(3-((6-((1-Methyl-1H-pyrazol-4-yl)amino)-1H-pyrazolo[3,4-d]pyrimidin-1-yl)methyl)phenyl)thiomorpholine 1,1-dioxide]	10-50 Fold	100 to 1000
Cn1cc(Nc2ncc3cnn(Cc4cccc(N5CC6CCC(C5)O6)c4)c3n2)cn1 [Example 26]	3-10 Fold	100 to 1000
Cn1cc(Nc2ncc3cnn(Cc4cccc(N5CCOCC5=O)c4)c3n2)cn1 [Example 27, 4-(3-((6-((1-Methyl-1H-pyrazol-4-yl)amino)-1H-pyrazolo[3,4-d]pyrimidin-1-yl)methyl)phenyl)morpholin-3-one]	10-50 Fold	100 to 1000
CN(C)CCCn1cc(Nc2ncc3cnn(Cc4cccc(N5CCOCC5=O)c4)c3n2)cn1 [Example 28, 4-(3-((6-((1-(3-(Dimethylamino)propyl)-1H-pyrazol-4-yl)amino)-1H-pyrazolo[3,4-d]pyrimidin-1-yl)methyl)phenyl)morpholin-3-one]	>50 Fold	100 to 1000
O=C1COCCN1c1cccc(Cn2ncc3cnc(Nc4cnn(CCO)c4)nc32)c1 [Example 29, 4-(3-((6-((1-(2-Hydroxyethyl)-1H-pyrazol-4-yl)amino)-1H-pyrazolo[3,4-d]pyrimidin-1-yl)methyl)phenyl)morpholin-3-one]	3-10 Fold	100 to 1000
O=C1CCCN1CCCn1cc(Nc2ncc3cnn(Cc4cccc(N5CCOCC5)c4)c3n2)cn1 [Example 30, 1-(3-(4-((1-(3-Morpholinobenzyl)-1H-pyrazolo[3,4-d]pyrimidin-6-yl)amino)-1H-pyrazol-1-yl)propyl)pyrrolidin-2-one]	10-50 Fold	100 to 1000
CN(C)CC1(Cn2cc(Nc3ncc4cnn(Cc5cccc(N6CCOCC6)c5)c4n3)cn2)COC1 [Example 31, N-(1-((3-((Dimethylamino)methyl)oxetan-3-yl)methyl)-1H-pyrazol-4-yl)-1-(3-morpholinobenzyl)-1H-pyrazolo[3,4-d]pyrimidin-6-amine]	3-10 Fold	100 to 1000
CC(CN(C)C)Cn1cc(Nc2ncc3cnn(Cc4cccc(N5CCOCC5)c4)c3n2)cn1 (stereo not drawn) [Example 32, N-(1-(3-(Dimethylamino)-2-methylpropyl)-1H-pyrazol-4-yl)-1-(3-morpholinobenzyl)-1H-pyrazolo[3,4-d]pyrimidin-6-amine]	10-50 Fold	1000 to 10000
CN(C)CC(O)Cn1cc(Nc2ncc3cnn(Cc4cccc(N5CCOCC5)c4)c3n2)cn1 (stereo not drawn) [Example 33, 1-(Dimethylamino)-3-(4-((1-(3-morpholinobenzyl)-1H-pyrazolo[3,4-d]pyrimidin-6-yl)amino)-1H-pyrazol-1-yl)propan-2-ol]	>50 Fold	1000 to 10000
NCCCn1cc(Nc2ncc3cnn(Cc4cccc(N5CCOCC5)c4)c3n2)cn1 [Example 34, N-(1-(3-Aminopropyl)-1H-pyrazol-4-yl)-1-(3-morpholinobenzyl)-1H-pyrazolo[3,4-d]pyrimidin-6-amine]	10-50 Fold	100 to 1000
O=C(CCn1cc(Nc2ncc3cnn(Cc4cccc(N5CCOCC5)c4)c3n2)cn1)NC1CC1 [Example 35, N-Cyclopropyl-3-(4-((1-(3-morpholinobenzyl)-1H-pyrazolo[3,4-d]pyrimidin-6-yl)amino)-1H-pyrazol-1-yl)propanamide]	10-50 Fold	100 to 1000
Cn1cc(Nc2ncc3cnn(Cc4cccc(N5CCNCC5=O)c4)c3n2)cn1 [Example 36, 1-(3-((6-((1-Methyl-1H-pyrazol-4-yl)amino)-1H-pyrazolo[3,4-d]pyrimidin-1-yl)methyl)phenyl)piperazin-2-one]	10-50 Fold	100 to 1000
Cn1cc(Nc2ncc3cnn(Cc4cc(N5CCOCC5)cc(F)c4F)c3n2)cn1 [Example 37, 1-(2,3-Difluoro-5-morpholinobenzyl)-N-(1-methyl-1H-pyrazol-4-yl)-1H-pyrazolo[3,4-d]pyrimidin-6-amine]	10-50 Fold	1000 to 10000
Cn1cc(Nc2ncc3cnn(Cc4c(F)ccc(N5CCOCC5)c4F)c3n2)cn1 [Example 38, 1-(2,6-Difluoro-3-morpholinobenzyl)-N-(1-methyl-1H-pyrazol-4-yl)-1H-pyrazolo[3,4-d]pyrimidin-6-amine]	10-50 Fold	100 to 1000
OCCn1cc(Nc2ncc3cnn(Cc4cccc(N5CCOCC5)c4F)c3n2)cn1 [Example 39, 2-(4-((1-(2-Fluoro-3-morpholinobenzyl)-1H-pyrazolo[3,4-d]pyrimidin-6-yl)amino)-1H-pyrazol-1-yl)ethanol]	10-50 Fold	100 to 1000
Cn1cc(Nc2ncc3cnn(Cc4cccc(N5CCOCC5=O)c4F)c3n2)cn1 [Example 40, 4-(2-Fluoro-3-((6-((1-methyl-1H-pyrazol-4-yl)amino)-1H-pyrazolo[3,4-d]pyrimidin-1-yl)methyl)phenyl)morpholin-3-one]	10-50 Fold	100 to 1000
CNCC1(Cn2cc(Nc3ncc4cnn(Cc5cccc(N6CCOCC6)c5)c4n3)cn2)COC1 [Example 41, N-(1-((3-((Methylamino)methyl)oxetan-3-yl)methyl)-1H-pyrazol-4-yl)-1-(3-morpholinobenzyl)-1H-pyrazolo[3,4-d]pyrimidin-6-amine]	10-50 Fold	1000 to 10000
Cn1cc(Nc2ncc3cnn(Cc4cccc(N5CC6(COC6)C5)c4)c3n2)cn1 [Example 89, 1-(3-(2-oxa-6-azaspiro[3.3]heptan-6-yl)benzyl)-N-(1-methyl-1H-pyrazol-4-yl)-1H-pyrazolo[3,4-d]pyrimidin-6-amine]	10-50 Fold	100 to 1000
